Test results: PMC6681393, “Intra-Nasally Administered Oligopeptide Lunasin Acts as a Possible Anti-Psychotic Agent in Mice Models” (Medicina, 2019)
“Also recorded” adds a separate entry of the source.

Experiments:
5-HT2C receptor = assay: [125I]DOI binding displacement, 5-HT2C; parameters: species or system human; conditions: for inhibition of [125I]DOI specific binding: mean of duplicates (n = 2)
Protocol: (§1) The binding assay was performed by Eurofins Cerep (France) according to Bryant et al., 1996 [15]. Briefly, the binding of lunasin to 5-HT2A and 5-HT2C receptors was estimated on its ability to displace the specific binding of [^125I]DOI on cell membrane suspensions of HEK-293 cells expressing human recombinant 5-HT2A and 5-HT2C receptors. The radioligand [^125I]DOI has high affinity for 5-HT2A (Kd: 0.3 nM) and 5-HT2C (Kd: 0.9 nM) receptors. Lunasin was tested at concentrations of 1, 10 and 100 µM. The results were expressed as a percent of radioligand specific binding (n = 2).

[1] = tested on: dopamine D2 receptor subtype; conditions: cited from earlier work
Text: (§2) Thus, lunasin at both doses normalized to control the level of behavioural changes after amphetamine in ...

[2] = tested on: dopamine D1 receptor subtype; conditions: cited from earlier work
Text: as §2

[3] = tested on: amphetamine-induced hyper-locomotion; conditions: direct central administration (intracisternally); cited from earlier work
Text: as §2

[4] = tested on: brain monoamine levels, DOI-treated mice; assay: Brain monoamines and metabolites, DOI-treated mice (UHPLC-TOF-MS); format: in vivo, male albino ICR mice; on 5-HIAA (brain level, ng/g): key: ↑: increase; ↓: decrease; N: normalization; Nc: no changes; on 5-HT (brain level, ng/g): key: ↑: increase; ↓: decrease; N: normalization; Nc: no changes; on HVA (brain level, ng/g): key: ↑: increase; ↓: decrease; N: normalization; Nc: no changes; on NA (brain noradrenaline level, ng/g): key: ↑: increase; ↓: decrease; N: normalization; Nc: no changes
[5] = tested on: PCP-induced hyperlocomotion in ICR mice; assay: Open field locomotor activity, phencyclidine-induced hyperlocomotion; format: in vivo, male albino ICR mice; conditions: lunasin 0.1 or 1 nmol/mouse i.n. after PCP 5 mg/kg i.p., n = 7–8
5-HT2A receptor = assay: [125I]DOI binding displacement, 5-HT2A; parameters: species or system human; conditions: for inhibition of [125I]DOI specific binding: mean of duplicates (n = 2)
Protocol: as §1

[6] = tested on: apomorphine-induced climbing activity; conditions: direct central administration (intracisternally); cited from earlier work
[7] = tested on: locomotor activity of ICR mice; assay: Open field locomotor activity, lunasin per se; format: in vivo, male albino ICR mice; conditions: lunasin 0.1 or 1 nmol/mouse i.n. alone; 15-min test; n = 7–8
[8] = tested on: DOI-induced hyperlocomotion in ICR mice; assay: Open field locomotor activity, DOI-induced hyperlocomotion; format: in vivo, male albino ICR mice; conditions: for effect on DOI hyperactivity (words): lunasin 1 nmol/mouse i.n., p = 0.0137
[9] = tested on: amphetamine-induced hyperlocomotion in ICR mice; assay: Open field locomotor activity, amphetamine-induced hyperlocomotion; format: in vivo, male albino ICR mice; conditions: for Locomotion (distance, cm): 15-min open field; for Locomotion (distance, cm) / effect on amphetamine hyperlocomotion: n = 7–8
brain monoamine levels = assay: Brain monoamines and metabolites, lunasin per se (UHPLC-TOF-MS); format: in vivo, male albino ICR mice; conditions: lunasin i.n. alone; for brain dopamine level, lunasin per se (words): p < 0.01
[10] = tested on: brain monoamine levels, amphetamine-treated mice; assay: Brain monoamines and metabolites, amphetamine-treated mice (UHPLC-TOF-MS); format: in vivo, male albino ICR mice; conditions: for amphetamine-altered brain noradrenaline level (words): lunasin 0.1 nmol/mouse i.n.
[11] = tested on: locomotion altered by ketamine; conditions: central (intracisternal) injection; cited from earlier work
[12] = 1 and 10 µM, HEK-293 cell membranes
[13] = lunasin 0.1 nmol/mouse i.n. + DOI 3 mg/kg i.p., n = 6–8
[14] = lunasin 1 nmol/mouse i.n. + DOI 3 mg/kg i.p., n = 6–8
[15] = lunasin 1 nmol/mouse i.n., p < 0.01
[16] = lunasin 0.1 and 1 nmol/mouse i.n., p < 0.0001
[17] = lunasin i.n., DOI-treated mice, dose not stated
[18] = lunasin i.n., amphetamine-treated mice, dose not stated
[19] = lunasin 0.1 nmol/mouse i.n. + amphetamine 3 mg/kg i.p., n = 6–8
[20] = lunasin 1 nmol/mouse i.n. + amphetamine 3 mg/kg i.p., n = 6–8

Substance: lunasin
- inhibition of [125I]DOI specific binding (5-HT2C receptor; 1 µM, HEK-293 cell membranes): 4.7%
- inhibition of [125I]DOI specific binding (5-HT2C receptor; 10 µM, HEK-293 cell membranes): 10.3%
- inhibition of [125I]DOI specific binding (5-HT2C receptor; 100 µM, HEK-293 cell membranes): 59.7%
- binding activity (5-HT2C receptor; 100 µM, compared with 5-HT2A): more considerable
- binding activity (5-HT2C receptor; [12]): did not show binding activity
- receptor affinity (5-HT2C receptor; compared with DOI, abstract): low affinity of lunasin (at µM concentrations)
- dopamine D2 receptor binding [1]: does not bind to the dopamine D2 receptor subtype
- dopamine D1 receptor affinity [2]: has an affinity similar to that of dopamine
- amphetamine-induced hyper-locomotion [3]: reduced amphetamine-induced hyper-locomotion
- 5-HIAA (brain level, ng/g) [4, 13]: N
- 5-HT (brain level, ng/g) [4, 13]: N
- NA (brain noradrenaline level, ng/g) [4, 13]: N
- 5-HIAA (brain level, ng/g) [4, 14]: N
- 5-HT (brain level, ng/g) [4, 14]: N
- HVA (brain level, ng/g) [4, 14]: N
- NA (brain noradrenaline level, ng/g) [4, 14]: N
- DOI-altered brain HVA level [4, 15]: normalized the altered levels of HVA
- DOI-altered brain noradrenaline level ([4]; lunasin 0.1 and 1 nmol/mouse i.n. (both tested doses), p < 0.01): reversed amphetamine-induced and DOI-induced (both tested doses) noradrenaline alterations to the control values
- DOI-increased brain 5-HIAA level [4, 16]: reversed the DOI up-regulated levels of serotonin and 5-HIAA almost to the control values; also recorded: fully normalized them to the control values
- DOI-increased brain serotonin level [4, 16]: reversed the DOI up-regulated levels of serotonin and 5-HIAA almost to the control values; also recorded: fully normalized them to the control values
- brain monoamine levels, summary [4, 17]: fully normalized hyper-locomotion and brain monoamine levels
- DOI-increased brain DOPAC level ([4]; lunasin i.n., dose not stated): These altered parameters were normalized by lunasin
- DOI-lowered brain HVA level ([4]; lunasin i.n., dose not stated): These altered parameters were normalized by lunasin
- DOI-lowered brain noradrenaline level ([4]; lunasin i.n., dose not stated): These altered parameters were normalized by lunasin
- effect on PCP hyperlocomotion (words) [5]: Phencyclidine behavioural effects were not influenced
- effect on PCP hyperlocomotion (words) ([5]; listed as lunasin): did not influence the PCP effect; also recorded: we did not find any influence of lunasin on PCP-induced hyperactivity
- inhibition of [125I]DOI specific binding (5-HT2A receptor; 1 µM, HEK-293 cell membranes): 1.6%
- inhibition of [125I]DOI specific binding (5-HT2A receptor; 10 µM, HEK-293 cell membranes): 2.6%
- binding activity (5-HT2A receptor; 100 µM): weak binding activity
- inhibition of [125I]DOI specific binding (5-HT2A receptor; 100 µM, HEK-293 cell membranes): 32.5%
- binding activity (5-HT2A receptor; [12]): did not show binding activity
- receptor affinity (5-HT2A receptor; compared with DOI, abstract): low affinity of lunasin (at µM concentrations)
- apomorphine-induced climbing activity [6]: reduced amphetamine-induced hyper-locomotion and apomorphine-induced climbing activity
- effect of lunasin per se on locomotion [7]: did not influence mouse activity
- Locomotion (distance, cm) ([8]; lunasin 1 nmol/mouse i.n. 15 min after DOI 3 mg/kg i.p., 15-min open field, n = 7–8): N
- effect on DOI hyperactivity (words) ([8]; n = 7–8): exerted protection against DOI-induced hyper-locomotion
- effect on DOI hyperactivity (words) ([8]; n = 7–8, listed as lunasin): decreased hyperactivity
- hyper-locomotion, summary [8, 17]: fully normalized hyper-locomotion
- Locomotion (distance, cm) ([9]; lunasin 0.1 nmol/mouse i.n. 15 min after amphetamine 3 mg/kg i.p.): N
- effect on amphetamine hyperlocomotion ([9]; lunasin 0.1 nmol/mouse i.n., p = 0.0031): considerably decreased; also recorded: normalized to control the level of behavioural changes after amphetamine injection
- Locomotion (distance, cm) ([9]; lunasin 1 nmol/mouse i.n. 15 min after amphetamine 3 mg/kg i.p.): N
- effect on amphetamine hyperlocomotion ([9]; lunasin 1 nmol/mouse i.n., p = 0.0018): considerably decreased; also recorded: normalized to control the level of behavioural changes after amphetamine injection
- hyper-locomotion, summary [9, 18]: fully normalized hyper-locomotion
- brain DOPAC concentration, lunasin per se (brain monoamine levels): Neither lunasin per se nor amphetamine changed the DOPAC concentration
- brain dopamine level, lunasin per se (words) (brain monoamine levels): significantly decreased dopamine level
- brain dopamine level, lunasin per se (words) (brain monoamine levels; listed as lunasin): significantly decreased dopamine levels
- 5-HIAA (brain level, ng/g) [10, 19]: N
- DA (brain dopamine level, ng/g) [10, 19]: N
- NA (brain noradrenaline level, ng/g) [10, 19]: N
- amphetamine-altered brain noradrenaline level (words) ([10]; p < 0.01): reversed amphetamine-induced and DOI-induced (both tested doses) noradrenaline alterations to the control values
- amphetamine-altered brain noradrenaline level (words) ([10]; p < 0.01, listed as lunasin): normalized noradrenaline level to control values
- 5-HIAA (brain level, ng/g) [10, 20]: N
- 5-HT (brain level, ng/g) [10, 20]: N
- DA (brain dopamine level, ng/g) [10, 20]: N
- HVA (brain level, ng/g) [10, 20]: N
- amphetamine-altered brain HVA level ([10]; lunasin 1 nmol/mouse i.n., p < 0.001): normalized the altered levels of HVA; also recorded: reversed to control value the elevated levels of dopamine and its metabolite HVA
- amphetamine-increased brain serotonin level [10, 15]: decreased the augmented serotonin; also recorded: fully normalized the levels of serotonin
- amphetamine-increased brain 5-HIAA level ([10]; lunasin 0.1 and 1 nmol/mouse i.n. (both doses), p < 0.0001): decreased the augmented serotonin (p < 0.01, Figure 2d) at both doses, as well as 5-HIAA levels; also recorded: fully normalized the levels of serotonin and its metabolite 5-HIAA (both tested doses)
- amphetamine-increased brain dopamine level [10, 16]: reversed to control values; also recorded: reversed to control value the elevated levels of dopamine
- brain monoamine levels, summary [10, 18]: fully normalized hyper-locomotion and brain monoamine levels
- effect on locomotion altered by ketamine [11]: did not influence locomotion altered by ketamine
